Measurements taken from patent US20100298141A1, “SUBSTITUTED PYRIDINE N-OXIDE HERBICIDES” (E. I. DU PONT DE NEMOURS AND COMPANY, priority 2007, published 2010).

Experiments:
wheat = assay: Test A pre-/postemergence greenhouse test; type: in vivo, Triticum aestivum; conditions: for Wheat plant response rating: 0 to 100 scale; for Plant response rating, Wheat: 0 to 100 scale where 0 is no effect and 100 is complete control
Text: (§1) Seeds of barnyardgrass (Echinochloa crus-galli), crabgrass (Digitaria sanguinalis), giant foxtail (Setaria faberi), morningglory (Ipomoea spp.), redroot pigweed (Amaranthus retroflexus), velvetleaf (Abutilon theophrasti), wheat (Triticum aestivum), and corn (Zea mays) were planted into a blend of loam soil and sand and treated preemergence with a directed soil spray using test compounds formulated in a non-phytotoxic solvent mixture which included a surfactant. At the same time these species were also treated with postemergence applications of test compounds formulated in the same manner. Plants ranged in height from two to ten cm and were in the one- to two-leaf stage for the postemergence treatment. Treated plants and untreated controls were maintained in a greenhouse for approximately ten days, after which time all treated plants were compared to untreated controls and visually evaluated for injury. […] A dash (-) response means no test results.

morningglory = assay: Test A pre-/postemergence greenhouse test; type: in vivo, Ipomoea spp.; conditions: for Morningglory plant response rating: 0 to 100 scale; for Plant response rating, Morningglory: 0 to 100 scale where 0 is no effect and 100 is complete control
Text: as §1

velvetleaf = assay: Test A pre-/postemergence greenhouse test; type: in vivo, Abutilon theophrasti; conditions: for Velvetleaf plant response rating: 0 to 100 scale; for Plant response rating, Velvetleaf: 0 to 100 scale where 0 is no effect and 100 is complete control
Text: as §1

barnyardgrass [1] = assay: Test C flooded paddy test; type: in vivo, Echinochloa crus-galli; conditions: Flood
Text: (§2) At time of treatment, test pots were flooded to 3 cm above the soil surface, treated by application of test compounds directly to the paddy water, and then maintained at that water depth for the duration of the test. Treated plants and controls were maintained in a greenhouse for 13 to 15 days, after which time all species were compared to controls and visually evaluated. […] A dash (-) response means no test result.

giant foxtail = assay: Test A pre-/postemergence greenhouse test; type: in vivo, Setaria faberi; conditions: for Foxtail, Giant plant response rating: 0 to 100 scale; for Plant response rating, Foxtail, Giant: 0 to 100 scale where 0 is no effect and 100 is complete control
Text: as §1

umbrella sedge = assay: Test C flooded paddy test; type: in vivo, Cyperus difformis; conditions: Flood
Text: as §2

barnyardgrass [2] = assay: Test A pre-/postemergence greenhouse test; type: in vivo, Echinochloa crus-galli; conditions: for Barnyardgrass plant response rating: 0 to 100 scale; for Plant response rating, Barnyardgrass: 0 to 100 scale where 0 is no effect and 100 is complete control
Text: as §1

crabgrass = assay: Test A pre-/postemergence greenhouse test; type: in vivo, Digitaria sanguinalis; conditions: for Crabgrass, Large plant response rating: 0 to 100 scale; for Plant response rating, Crabgrass, Large: 0 to 100 scale where 0 is no effect and 100 is complete control
Text: as §1

corn = assay: Test A pre-/postemergence greenhouse test; type: in vivo, Zea mays; conditions: for Corn plant response rating: 0 to 100 scale; for Plant response rating, Corn: 0 to 100 scale where 0 is no effect and 100 is complete control
Text: as §1

rice = assay: Test C flooded paddy test; type: in vivo, Oryza sativa; conditions: Flood
Text: as §2

redroot pigweed = assay: Test A pre-/postemergence greenhouse test; type: in vivo, Amaranthus retroflexus; conditions: for Pigweed plant response rating: 0 to 100 scale; for Plant response rating, Pigweed: 0 to 100 scale where 0 is no effect and 100 is complete control
Text: as §1

duck salad = assay: Test C flooded paddy test; type: in vivo, Heteranthera limosa; conditions: Flood
Text: as §2

[3] = Postemergence, 125 g ai/ha, 0 is no effect, 100 is complete control
[4] = Postemergence, 500 g ai/ha, 0 is no effect, 100 is complete control
[5] = Preemergence, 125 g ai/ha, 0 no effect, 100 complete control
[6] = 31 g ai/ha, scale 0 to 100 (0 no effect, 100 complete control)
[7] = 62 g ai/ha, scale 0 to 100, 0 no effect, 100 complete control, 13 to 15 days
[8] = 125 g ai/ha, scale 0 to 100, 0 no effect, 100 complete control, 13 to 15 days
[9] = 250 g ai/ha, scale 0 to 100 (0 no effect, 100 complete control)
[10] = 62 g ai/ha, scale 0 to 100 (0 no effect, 100 complete control)
[11] = 250 g ai/ha, scale 0 to 100, 0 no effect, 100 complete control, 13 to 15 days

`Cn1nc(C(F)(F)F)c(CS(=O)(=O)c2ccc(Br)c[n+]2[O-])c1OC(F)F` [Compound 13] was tested, and the “Wheat plant response rating” value (wheat; [3]) was 0, the “Wheat plant response rating” value (wheat; [4]) was 0 and the “Wheat plant response rating” value (wheat; [5]) was 0. The “Plant response rating, Wheat” value (wheat; Preemergence, 500 g ai/ha) was 0, the “Morningglory plant response rating” value (morningglory; [3]) was 0 and the “Morningglory plant response rating” value (morningglory; [4]) was 0. For the same molecule, the “Morningglory plant response rating” value (morningglory; [5]) was 0, the “Plant response rating, Morningglory” value (morningglory; Preemergence, 500 g ai/ha) was 0 and the “Velvetleaf plant response rating” value (velvetleaf; [3]) was 0. The “Velvetleaf plant response rating” value (velvetleaf; [4]) was 0, the “Velvetleaf plant response rating” value (velvetleaf; [5]) was 0 and the “Plant response rating, Velvetleaf” value (velvetleaf; Preemergence, 500 g ai/ha) was 0. The “Plant response rating, Barnyardgrass” value (barnyardgrass [1]; [6]) was 0, the “Plant response rating, Barnyardgrass” value (barnyardgrass [1]; [7]) was 0 and the “Plant response rating, Barnyardgrass” value (barnyardgrass [1]; [8]) was 20. The “Plant response rating, Barnyardgrass” value (barnyardgrass [1]; [9]) was 80, the “Foxtail, Giant plant response rating” value (giant foxtail; [3]) was 0 and the “Foxtail, Giant plant response rating” value (giant foxtail; [4]) was 10. For the same molecule, the “Foxtail, Giant plant response rating” value (giant foxtail; [5]) was 50, the “Plant response rating, Foxtail, Giant” value (giant foxtail; Preemergence, 500 g ai/ha) was 70 and the “Plant response rating, Sedge, Umbrella” value (umbrella sedge; [6]) was 0. The “Plant response rating, Sedge, Umbrella” value (umbrella sedge; [7]) was 0, the “Plant response rating, Sedge, Umbrella” value (umbrella sedge; [8]) was 20 and the “Plant response rating, Sedge, Umbrella” value (umbrella sedge; [9]) was 100. The “Barnyardgrass plant response rating” value (barnyardgrass [2]; [3]) was 0, the “Barnyardgrass plant response rating” value (barnyardgrass [2]; [4]) was 0 and the “Barnyardgrass plant response rating” value (barnyardgrass [2]; [5]) was 50. The “Plant response rating, Barnyardgrass” value (barnyardgrass [2]; Preemergence, 500 g ai/ha) was 90, the “Crabgrass, Large plant response rating” value (crabgrass; [3]) was 0 and the “Crabgrass, Large plant response rating” value (crabgrass; [4]) was 30. For the same molecule, the “Crabgrass, Large plant response rating” value (crabgrass; [5]) was 40, the “Plant response rating, Crabgrass, Large” value (crabgrass; Preemergence, 500 g ai/ha) was 80 and the “Corn plant response rating” value (corn; [3]) was 0. For the same molecule, the “Corn plant response rating” value (corn; [4]) was 0, the “Corn plant response rating” value (corn; [5]) was 0 and the “Plant response rating, Corn” value (corn; Preemergence, 500 g ai/ha) was 0. The “Plant response rating, Rice” value (rice; [6]) was 0, the “Plant response rating, Rice” value (rice; [7]) was 50 and the “Plant response rating, Rice” value (rice; [8]) was 65. For the same molecule, the “Plant response rating, Rice” value (rice; [9]) was 85, the “Pigweed plant response rating” value (redroot pigweed; [3]) was 0 and the “Pigweed plant response rating” value (redroot pigweed; [4]) was 0. The “Plant response rating, Ducksalad” value (duck salad; [6]) was 0, the “Plant response rating, Ducksalad” value (duck salad; [7]) was 0 and the “Plant response rating, Ducksalad” value (duck salad; [8]) was 0. The “Plant response rating, Ducksalad” value (duck salad; [9]) was 95.

`Cc1cc(S(=O)(=O)Cc2c(C(F)(F)F)nn(C)c2OCC(F)(F)F)[n+]([O-])cc1Cl` [Compound 71] was tested, and the “Plant response rating, Wheat” value (wheat; Postemergence, 125 g ai/ha) was 30, the “Wheat plant response rating” value (wheat; [4]) was 50 and the “Wheat plant response rating” value (wheat; [5]) was 0. The “Plant response rating, Wheat” value (wheat; Preemergence, 500 g ai/ha) was 40, the “Plant response rating, Morningglory” value (morningglory; Postemergence, 125 g ai/ha) was 0 and the “Morningglory plant response rating” value (morningglory; [4]) was 30. The “Morningglory plant response rating” value (morningglory; [5]) was 0, the “Plant response rating, Morningglory” value (morningglory; Preemergence, 500 g ai/ha) was 10 and the “Plant response rating, Velvetleaf” value (velvetleaf; Postemergence, 125 g ai/ha) was 20. The “Velvetleaf plant response rating” value (velvetleaf; [4]) was 50, the “Velvetleaf plant response rating” value (velvetleaf; [5]) was 0 and the “Plant response rating, Velvetleaf” value (velvetleaf; Preemergence, 500 g ai/ha) was 30. The “Plant response rating, Barnyardgrass” value (barnyardgrass [1]; [10]) was 20, the “Plant response rating, Barnyardgrass” value (barnyardgrass [1]; [11]) was 20 and the “Plant response rating, Foxtail, Giant” value (giant foxtail; Postemergence, 125 g ai/ha) was 40. For the same molecule, the “Foxtail, Giant plant response rating” value (giant foxtail; [4]) was 80, the “Foxtail, Giant plant response rating” value (giant foxtail; [5]) was 90 and the “Plant response rating, Foxtail, Giant” value (giant foxtail; Preemergence, 500 g ai/ha) was 100. For the same molecule, the “Plant response rating, Sedge, Umbrella” value (umbrella sedge; [10]) was 0, the “Plant response rating, Sedge, Umbrella” value (umbrella sedge; [11]) was 30 and the “Plant response rating, Barnyardgrass” value (barnyardgrass [2]; Postemergence, 125 g ai/ha) was 40. The “Barnyardgrass plant response rating” value (barnyardgrass [2]; [4]) was 80, the “Barnyardgrass plant response rating” value (barnyardgrass [2]; [5]) was 40 and the “Plant response rating, Barnyardgrass” value (barnyardgrass [2]; Preemergence, 500 g ai/ha) was 90. The “Plant response rating, Crabgrass, Large” value (crabgrass; Postemergence, 125 g ai/ha) was 30, the “Crabgrass, Large plant response rating” value (crabgrass; [4]) was 70 and the “Crabgrass, Large plant response rating” value (crabgrass; [5]) was 50. For the same molecule, the “Plant response rating, Crabgrass, Large” value (crabgrass; Preemergence, 500 g ai/ha) was 100, the “Plant response rating, Corn” value (corn; Postemergence, 125 g ai/ha) was 0 and the “Corn plant response rating” value (corn; [4]) was 30. For the same molecule, the “Corn plant response rating” value (corn; [5]) was 20, the “Plant response rating, Corn” value (corn; Preemergence, 500 g ai/ha) was 20 and the “Plant response rating, Rice” value (rice; [10]) was 30. The “Plant response rating, Rice” value (rice; [11]) was 60, the “Plant response rating, Pigweed” value (redroot pigweed; Postemergence, 125 g ai/ha) was 50 and the “Pigweed plant response rating” value (redroot pigweed; [4]) was 70. For the same molecule, the “Pigweed plant response rating” value (redroot pigweed; [5]) was 70, the “Plant response rating, Pigweed” value (redroot pigweed; Preemergence, 500 g ai/ha) was 100 and the “Plant response rating, Ducksalad” value (duck salad; [10]) was 0. For the same molecule, the “Plant response rating, Ducksalad” value (duck salad; [11]) was 70.
